Drawing on patent publication US8114886B2, “Pyridylmethylsulfone derivative” (Daiichi Sankyo Company, Limited, priority 2005, dated 2012), this text covers melting point and EC50 for 20 molecules.

Data set [1] concerns β-amyloid protein (Aβ) secreted by E35 cells (H4 cells with APP751 gene). Description: Screening system using E35 cells for inhibition of production/secretion of β-amyloid protein (sandwich ELISA of Aβ in culture medium). The format is cell-based, human. The note with it: Homo sapiens, 24 hours with compound, Aβ in culture supernatant by ELISA, read-out: Inhibitory Activity for Production of A(EC50). The procedure:
The activity of the compound inhibiting β-amyloid protein production was measured on E35 cells prepared by introducing APP751 gene, a gene of a human wild type β-amyloid protein precursor protein, to human glioma cells (H4 cells), by quantifying the amount of β-amyloid protein (Aβ) secreted to the culture medium by means of a sandwich type Enzyme-Linked Immunosorbent Assay (ELISA) method.
That is, E35 cells inoculated on a 96-well plate were cultured in an incubator at 37° C. which was maintained at equilibrium with 5% carbon dioxide, using Dulbecco's Modified Eagle's Medium containing inactivated 10% fetal bovine serum as the culture medium. After 24 hours from the inoculation, a test compound dissolved in a DMSO solution was added. The DMSO solution of the test compound was prepared at a concentration of 2000 times of the final concentration, such that the DMSO concentration in the culture medium would be 0.05%. After culturing for another 24 hours, the culture supernatant was recovered, and this was added to a 96-well plate for ELISA onto which a monoclonal antibody against Aβ, 25-1, was solid-phased. The plate was incubated at 4° C. for 16 to 20 hours. The plate was washed with phosphate buffer solution (pH 7.4), and then a biotinylated monoclonal antibody against Aβ, MA32-40, was added thereto. The plate was left to stand at 4° C. for 2 hours. The plate was washed again with phosphate buffer solution, and then alkaline phosphatase-conjugated streptavidin was added to conjugate streptavidin to biotin. Subsequently, the plate was washed with phosphate buffer solution. To this, Blue Phos (Kirkegaard & Perry Laboratories, Inc.) was added. After incubating the plate for an appropriate time, the reaction was terminated with an acid, and the absorbance for each well was measured. The amount of Aβ contained in the culture supernatant was determined from a calibration curve which was produced separately, and the amount was compared with that of control cells to which the compound was not added. Thus, the concentration at which 50% of the Aβ production is inhibited (EC50 value) was calculated. In addition, the 25-1 antibody and MA32-40 antibody used in ELISA were mouse monoclonal antibodies derived from the hybridoma cell clone lines, which were each produced and selected according to a standard method using Aβ25-35 and Aβ1-8 as antigens, respectively, and which specifically recognize their respective antigens. […]
The scores indicate ++++ for the case where EC50 was 5 nM or less; +++ for the case where EC50 was 5 to 50 nM; ++ for the case where EC50 was 50 to 500 nM; and + for the case where EC50 was 500 nM to 5 μM.

Usually melting point stands for the temperature of the solid-liquid transition. For orientation: EC50 means the concentration giving half of the maximal effect.

The molecule `CNC(=O)c1cc(C)c(C(c2cc(F)ccc2F)S(=O)(=O)c2ccc(Cl)cc2)cn1` (stereo not shown) [Example 4, 5-[[(4-Chlorophenyl)sulfonyl](2,5-difluorophenyl)methyl]-N,4-dimethylpyridine-2-carboxamide] returned a melting point of 200 to 201 °C. The concentration for a half-maximal effect (EC50) in data set [1] was at most 5 nM.

Molecule `Cc1cc(C(=O)N(C)C)ncc1C(c1cc(F)ccc1F)S(=O)(=O)c1ccc(Cl)cc1` (stereo not shown) [Example 5, 5-[[(4-Chlorophenyl)sulfonyl](2,5-difluorophenyl)methyl]-N,N,4-trimethylpyridine-2-carboxamide] returned a melting point of 207 to 208 °C. Moreover, the EC50 in data set [1] was 50 to 500 nM.

Take `Cc1cc(C(N)=O)ncc1C(c1cc(F)ccc1F)S(=O)(=O)c1ccc(Cl)cc1` (stereo not shown) [Example 9, 5-[[(4-Chlorophenyl)sulfonyl](2,5-difluorophenyl)methyl]-4-methylpyridine-2-carboxamide]: the melting point fell in the range of 241 to 242 °C. The EC50 in data set [1] was at most 5 nM.

In the case of `CNC(=O)c1cc(C)c(C(c2cc(F)ccc2F)S(=O)(=O)c2ccc(F)cc2)cn1` (stereo not shown) [Example 13, 5-[(2,5-difluorophenyl)[(4-fluorophenyl)sulfonyl]methyl]-N, 4-dimethylpyridine-2-carboxamide], the melting point was 201 to 202 °C. The EC50 in data set [1] was at most 5 nM.

`Cc1cc(C(=O)N(C)C)ncc1C(c1cc(F)ccc1F)S(=O)(=O)c1ccc(F)cc1` (stereo not shown) [Example 14, 5-[(2,5-Difluorophenyl)[(4-fluorophenyl)sulfonyl]methyl]-N,N,4-trimethylpyridine-2-carboxamide] returned a melting point of 176 to 177 °C. Besides, the half-maximal effective concentration (EC50) in data set [1] was 50 to 500 nM.

`CCNC(=O)c1cc(C)c(C(c2cc(F)ccc2F)S(=O)(=O)c2ccc(F)cc2)cn1` (stereo not shown) [Example 16, 5-[(2,5-Difluorophenyl)[(4-fluorophenyl)sulfonyl]methyl]-N-ethyl-4-methylpyridine-2-carboxamide] showed a melting point of 191 to 193 °C. The EC50 in data set [1] is at most 5 nM.

On to `Cc1cc(C(=O)NCCO)ncc1C(c1cc(F)ccc1F)S(=O)(=O)c1ccc(F)cc1` (stereo not shown) [Example 17, 5-[(2,5-Difluorophenyl)[(4-fluorophenyl)sulfonyl]methyl]-N-(2-hydroxyethyl)-4-methylpyridine-2-carboxamide], for which the melting point is 153 to 154 °C. For the same molecule, the EC50 in data set [1] was at most 5 nM.

For the molecule `CCN(C)C(=O)c1cc(C)c(C(c2cc(F)ccc2F)S(=O)(=O)c2ccc(F)cc2)cn1` (stereo not shown) [Example 18, 5-[(2,5-Difluorophenyl)[(4-fluorophenyl)sulfonyl]methyl]-N-ethyl-N,4-dimethylpyridine-2-carboxamide], the melting point lay within 165 to 167 °C. Further, in data set [1], the EC50 lay in the range of 50 to 500 nM.

On to `Cc1cc(C(=O)N(C)CCO)ncc1C(c1cc(F)ccc1F)S(=O)(=O)c1ccc(F)cc1` (stereo not shown) [Example 19, 5-[(2,5-Difluorophenyl)[(4-fluorophenyl)sulfonyl]methyl]-N-(2-hydroxyethyl)-N,4-dimethylpyridine-2-carboxamide], for which the melting point lay in the range of 123 to 125 °C. Moreover, in data set [1], the EC50 fell in the range of 500 to 5000 nM.

With `COc1ccc(S(=O)(=O)C(c2cnc(C(=O)NCCO)cc2C)c2cc(F)ccc2F)cc1` (stereo not shown) [Example 43, 5-[(2,5-Difluorophenyl)[(4-methoxyphenyl)sulfonyl]methyl]-N-(2-hydroxyethyl)-4-methylpyridine-2-carboxamide], the melting point lay in the range of 134 to 135 °C. Also, the EC50 in data set [1] lay in the range of 5 to 50 nM.

Turning to `COc1ccc(S(=O)(=O)C(c2cnc(C(=O)NCCO)cc2C)c2cc(F)ccc2F)cc1F` (stereo not shown) [Example 47, 5-[(2,5-Difluorophenyl)[(3-fluoro-4-methoxyphenyl)sulfonyl]methyl]-N-(2-hydroxyethyl)-4-methylpyridine-2-carboxamide], the melting point lay in the range of 137 to 138 °C. The EC50 in data set [1] lay in the range of 5 to 50 nM.

`Cc1cc(C(=O)NCCC[S+](C)[O-])ncc1C(c1cc(F)ccc1F)S(=O)(=O)c1ccc(F)cc1` (stereo not shown) [Example 73, 5-[(2,5-Difluorophenyl)[(4-fluorophenyl)sulfonyl]methyl]-4-methyl-N-[3-(methylsulfinyl)propyl]pyridine-2-carboxamide] showed a melting point of 170 to 173 °C. In addition, the EC50 in data set [1] is at most 5 nM.

In turn, `Cc1cc(C(=O)NCCCS(C)(=O)=O)ncc1C(c1cc(F)ccc1F)S(=O)(=O)c1ccc(F)cc1` (stereo not shown) [Example 74, 5-[(2,5-Difluorophenyl)[(4-fluorophenyl)sulfonyl]methyl]-4-methyl-N-[3-(methylsulfonyl)propyl]pyridine-2-carboxamide] displayed a melting point of 182 to 185 °C. Besides, the EC50 in data set [1] is at most 5 nM.

Molecule `Cc1cc(C(=O)NC(CO)CO)ncc1C(c1cc(F)ccc1F)S(=O)(=O)c1ccc(F)cc1` (stereo not shown) [Example 75, 5-[(2,5-Difluorophenyl)[(4-fluorophenyl)sulfonyl]methyl]-N-[2-hydroxy-1-(hydroxymethyl)ethyl]-4-methylpyridine-2-carboxamide] showed a melting point of 150 to 152 °C. Also, the EC50 in data set [1] is at most 5 nM.

The molecule `Cc1cc(C(=O)N2CCC(O)CC2)ncc1C(c1cc(F)ccc1F)S(=O)(=O)c1ccc(F)cc1` (stereo not shown) [Example 76, 1-[[5-[(2,5-Difluorophenyl)[(4-fluorophenyl)sulfonyl]methyl]-4-methylpyridin-2-yl]carbonyl]piperidin-4-ol] came in with a melting point of 171 to 173 °C. Besides, the EC50 in data set [1] lay within 500 to 5000 nM.

In turn, `Cc1cc(C(=O)N2CCOCC2)ncc1C(c1cc(F)ccc1F)S(=O)(=O)c1ccc(F)cc1` (stereo not shown) [Example 77, 4-[[5-[(2,5-Difluorophenyl)[(4-fluorophenyl)sulfonyl]methyl]-4-methylpyridin-2-yl]carbonyl]morpholine] gave a melting point of 165 to 167 °C. For the same molecule, the EC50 in data set [1] was 500 to 5000 nM.

With `CONC(=O)c1cc(C)c(C(c2cc(F)ccc2F)S(=O)(=O)c2ccc(F)cc2)cn1` (stereo not shown) [Example 78, 5-[(2,5-Difluorophenyl)[(4-fluorophenyl)sulfonyl]methyl]-N-methoxy-4-methylpyridine-2-carboxamide], the melting point lay within 231 to 234 °C. Also, the EC50 in data set [1] was in the range of 5 to 50 nM.

As for `CON(C)C(=O)c1cc(C)c(C(c2cc(F)ccc2F)S(=O)(=O)c2ccc(F)cc2)cn1` (stereo not shown) [Example 79, 5-[(2,5-Difluorophenyl) [(4-fluorophenyl)sulfonyl]methyl]-N-methoxy-N,4-dimethylpyridine-2-carboxamide], the melting point lay within 156 to 158 °C. The EC50 in data set [1] was 50 to 500 nM.

In turn, `COC(=O)NCCNC(=O)c1cc(C)c(C(c2cc(F)ccc2F)S(=O)(=O)c2ccc(F)cc2)cn1` (stereo not shown) [Example 84, Methyl[2-[[[5-[(2,5-difluorophenyl)[(4-fluorophenyl)sulfonyl]methyl]-4-methylpyridin-2-yl]carbonyl]amino]ethyl]carbamate] displayed a melting point of 167 to 169 °C. In addition, the EC50 in data set [1] was at most 5 nM.

For `Cc1cc(C(=O)NCCO)ncc1C(c1c(F)ccc(F)c1F)S(=O)(=O)c1ccc(F)cc1` (stereo not shown) [Example 94, 5-[[(4-Fluorophenyl)sulfonyl](2,3,6-trifluorophenyl)methyl]-N-(2-hydroxyethyl)-4-methylpyridine-2-carboxamide], the melting point fell in the range of 164 to 165 °C. In data set [1], the EC50 was at most 5 nM.
